Tested on: moderate-to-severe chronic spontaneous urticaria (CSU)
Test: Phase 2 CSU study: Patient Global Impression of Severity (PGIS)
Assay type: in vivo, human
Settings: for PGIS Change from baseline LS Mean (SE) / PGIS % Change difference for rilzabrutinib vs. placebo LS Mean (95% CI) / PGIS % Change from baseline LS Mean (SE) / PGIS Change difference for rilzabrutinib vs. placebo LS Mean (95% CI): omalizumab-naïve, ANCOVA; for PGIS Change from baseline Mean (SD) / PGIS Change from baseline Median / PGIS Median / PGIS Percent change from baseline Mean (SD) / PGIS Percent change from baseline Median / PGIS category Mild, patients / PGIS category Moderate, patients / PGIS category None, patients / PGIS category Severe, patients: omalizumab-naïve population
Description: The study comprises a 12 week, randomized, double-blind, placebo-controlled, multi-center, dose-ranging efficacy and safety phase, followed by a 40 week open label extension (OLE) phase (see FIG. 1).
The study consists of three phases and an optional OLE phase.
The PGIS is a 1-item measure that asks participants to provide a self-assessment of their overall CSU severity for the past week on a 4 point scale. Response choices are: “None”, “Mild”, “Moderate” and “Severe”. The PGIC is a 1-item measure that asks the participant to provide a self-assessment of overall change in their CSU since the participant started taking the study medication on a 7-point scale. The response options range from “Very Much Better” to “Very Much Worse.” Patients were to complete questionnaires for the 2 items during their site visit.

CC(C)(C=C(C#N)C(=O)N1CCC[C@@H](n2nc(-c3ccc(Oc4ccccc4)cc3F)c3c(N)ncnc32)C1)N1CCN(C2COC2)CC1 [rilzabrutinib, (R)-2-[3-[4-amino-3-(2-fluoro-4-phenoxy-phenyl)pyrazolo[3,4-d]pyrimidin-1-yl]piperidine-1-carbonyl]-4-methyl-4-[4-(oxetan-3-yl)piperazin-1-yl]pent-2-enenitrile]
PGIS Change from baseline LS Mean (SE) (Week 4, 400 mg TID): −0.96 (0.13)
PGIS Change from baseline Mean (SD) (Week 8, 400 mg BID): −1.00
PGIS Change from baseline Median (Week 8, 400 mg BID): −1.00
PGIS Median (Week 8, 400 mg BID): 1.00
PGIS Percent change from baseline Mean (SD) (Week 8, 400 mg BID): −44.95%
PGIS Percent change from baseline Median (Week 8, 400 mg BID): −50.00%
PGIS category Mild, patients (Week 8, 400 mg BID): 13 (39.4)
PGIS category Moderate, patients (Week 8, 400 mg BID): 7 (21.2)
PGIS category None, patients (Week 8, 400 mg BID): 9 (27.3)
PGIS category Severe, patients (Week 8, 400 mg BID): 4 (12.1)
PGIS % Change difference for rilzabrutinib vs. placebo LS Mean (95% CI) (Week 8, 400 mg BID): −12.18 (−30.63, 6.27) %
PGIS % Change from baseline LS Mean (SE) (Week 8, 400 mg BID): −46.44 (6.74) %
PGIS Change difference for rilzabrutinib vs. placebo LS Mean (95% CI) (Week 8, 400 mg BID): −0.25 (−0.67, 0.16)
PGIS Change from baseline Mean (SD) (Week 8, 400 mg QPM): 0.67
PGIS Change from baseline Median (Week 8, 400 mg QPM): −1.00
PGIS Median (Week 8, 400 mg QPM): 2.00
PGIS Percent change from baseline Mean (SD) (Week 8, 400 mg QPM): −25.25%
PGIS Percent change from baseline Median (Week 8, 400 mg QPM): −33.33%
PGIS category Mild, patients (Week 8, 400 mg QPM): 10 (30.3)
PGIS category Moderate, patients (Week 8, 400 mg QPM): 14 (42.4)
PGIS category None, patients (Week 8, 400 mg QPM): 1 (3.0)
PGIS category Severe, patients (Week 8, 400 mg QPM): 8 (24.2)
PGIS % Change difference for rilzabrutinib vs. placebo LS Mean (95% CI) (Week 8, 400 mg QPM): 9.27 (−9.09, 27.62) %
PGIS % Change from baseline LS Mean (SE) (Week 8, 400 mg QPM): −24.99 (6.69) %
PGIS Change difference for rilzabrutinib vs. placebo LS Mean (95% CI) (Week 8, 400 mg QPM): 0.24 (−0.17, 0.65)
PGIS Change from baseline LS Mean (SE) (Week 8, 400 mg QPM): −0.61 (0.15)
PGIS Change from baseline Mean (SD) (Week 8, 400 mg TID): −1.13
PGIS Change from baseline Median (Week 8, 400 mg TID): −1.00
PGIS Median (Week 8, 400 mg TID): 1.00
PGIS Percent change from baseline Mean (SD) (Week 8, 400 mg TID): 47.22%
PGIS Percent change from baseline Median (Week 8, 400 mg TID): −50.00%
PGIS category Mild, patients (Week 8, 400 mg TID): 12 (40.0)
PGIS category Moderate, patients (Week 8, 400 mg TID): 8 (26.7)
PGIS category None, patients (Week 8, 400 mg TID): 6 (20.0)
PGIS category Severe, patients (Week 8, 400 mg TID): 4 (13.3)
PGIS % Change difference for rilzabrutinib vs. placebo LS Mean (95% CI) (Week 8, 400 mg TID): −11.39 (−30.26, 7.48) %
PGIS % Change from baseline LS Mean (SE) (Week 8, 400 mg TID): −45.65 (7.05) %
PGIS Change difference for rilzabrutinib vs. placebo LS Mean (95% CI) (Week 8, 400 mg TID): −0.17 (−0.58, 0.25)
PGIS Change from baseline LS Mean (SE) (Week 8, 400 mg TID): −1.02 (0.15)
PGIS Change from baseline Mean (SD) (Week 12, 400 mg BID): −1.03
PGIS Change from baseline Median (Week 12, 400 mg BID): −1.00
PGIS Median (Week 12, 400 mg BID): 1.00
PGIS Percent change from baseline Mean (SD) (Week 12, 400 mg BID): −43.55%
PGIS Percent change from baseline Median (Week 12, 400 mg BID): −50.00%
PGIS category Mild, patients (Week 12, 400 mg BID): 6 (19.4)
PGIS category Moderate, patients (Week 12, 400 mg BID): 10 (32.3)
PGIS category None, patients (Week 12, 400 mg BID): 12 (38.7)
PGIS category Severe, patients (Week 12, 400 mg BID): 3 (9.7)
PGIS % Change difference for rilzabrutinib vs. placebo LS Mean (95% CI) (Week 12, 400 mg BID): −13.46 (−33.69, 6.76) %
PGIS % Change from baseline LS Mean (SE) (Week 12, 400 mg BID): −45.76 (7.46) %
PGIS Change difference for rilzabrutinib vs. placebo LS Mean (95% CI) (Week 12, 400 mg BID): −0.34 (−0.77, 0.10)
PGIS Change from baseline LS Mean (SE) (Week 12, 400 mg BID): −1.14 (0.16)
PGIS Change from baseline Mean (SD) (Week 12, 400 mg QPM): −0.68
PGIS Change from baseline Median (Week 12, 400 mg QPM): −1.00
PGIS Median (Week 12, 400 mg QPM): 2.00
PGIS Percent change from baseline Mean (SD) (Week 12, 400 mg QPM): −27.45%
PGIS Percent change from baseline Median (Week 12, 400 mg QPM): −33.33%
PGIS category Mild, patients (Week 12, 400 mg QPM): 10 (29.4)
PGIS category Moderate, patients (Week 12, 400 mg QPM): 15 (44.1)
PGIS category None, patients (Week 12, 400 mg QPM): 1 (2.9)
PGIS category Severe, patients (Week 12, 400 mg QPM): 8 (23.5)
PGIS % Change difference for rilzabrutinib vs. placebo LS Mean (95% CI) (Week 12, 400 mg QPM): 5.87 (−13.65, 25.38) %
PGIS % Change from baseline LS Mean (SE) (Week 12, 400 mg QPM): −26.42 (7.16) %
PGIS Change difference for rilzabrutinib vs. placebo LS Mean (95% CI) (Week 12, 400 mg QPM): 0.21 (−0.22, 0.63)
PGIS Change from baseline LS Mean (SE) (Week 12, 400 mg QPM): −0.59 (0.15)
PGIS Change from baseline Mean (SD) (Week 12, 400 mg TID): −1.17
PGIS Change from baseline Median (Week 12, 400 mg TID): −1.00
PGIS Median (Week 12, 400 mg TID): 1.00
PGIS Percent change from baseline Mean (SD) (Week 12, 400 mg TID): −47.22%
PGIS Percent change from baseline Median (Week 12, 400 mg TID): −50.00%
PGIS category Mild, patients (Week 12, 400 mg TID): 13 (43.3)
PGIS category Moderate, patients (Week 12, 400 mg TID): 8 (26.7)
PGIS category None, patients (Week 12, 400 mg TID): 6 (20.0)
PGIS category Severe, patients (Week 12, 400 mg TID): 3 (10.0)
PGIS % Change difference for rilzabrutinib vs. placebo LS Mean (95% CI) (Week 12, 400 mg TID): −12.67 (−32.97, 7.63) %
PGIS % Change from baseline LS Mean (SE) (Week 12, 400 mg TID): −44.96 (7.44) %
PGIS Change difference for rilzabrutinib vs. placebo LS Mean (95% CI) (Week 12, 400 mg TID): −0.24 (−0.67, 0.19)
PGIS Change from baseline LS Mean (SE) (Week 12, 400 mg TID): −1.04 (0.16)

From patent US20260256792A1, “TREATMENT OF CHRONIC SPONTANEOUS URTICARIA BY ADMINISTERING (R)-2-[3-[4-AMINO-3-(2-FLUORO-4-PHENOXY-PHENYL)PYRAZOLO[3,4-D]PYRIMIDIN-1-YL]PIPERIDINE-1-CARBONYL]-4-METHYL-4-[4-(OXETAN-3-YL)PIPERAZIN-1-YL]PENT-2-ENENITRILE” (priority 2023, published 2026)
